Experiment: in vitro
Conditions: human, hela cells, % viability

First: CNC(=O)c1sc2ccccc2c1C1CN(Cc2cn(C)c3ccc(F)cc23)CCO1 (stereo not drawn) [CBK285868]
Second: COc1ccc(OC)c(CN(C(=O)c2oc3ccc(F)cc3c2C)c2cnn(C)c2)c1 [CBK298278]
The viability at 28.5 h, 10 µM of the first is lower: 87.4% for the first, 89.1% for the second.

Going from `c1ccc(C(=NCCN=C(c2ccccc2)c2ccccc2)c2ccccc2)cc1` [CBK262065] to `O=C1c2ccccc2NC(C(=O)O)(c2ccccc2)N1c1ccccc1Cl` (stereo not drawn) [CBK287169], the viability at 28.5 h, 10 µM falls from 113% to 81%.

Going from `CC1(C)CC(=O)C(C(=S)Nc2ccc(F)cc2)=C(NCc2ccc3c(c2)OCO3)C1` [CBK264779] to `COc1ccc(S(=O)(=O)N2CCC(C(=O)N3CCN(Cc4ccc5c(c4)OCO5)CC3)CC2)cc1Cl` [CBK267614], the viability at 28.5 h, 10 µM falls from 97.5% to 86%.

Going from `Cc1ccccc1CNC(=O)CN(c1cccc(C(F)(F)F)c1)S(=O)(=O)c1ccccc1` [CBK264047] to `COc1ccc2c(c1)c(C(NCc1cccc(C(F)(F)F)c1)C(N)=O)nn2Cc1ccccc1` (stereo not drawn) [CBK010715], the viability at 28.5 h, 10 µM falls from 102% to 100%.

First: Cc1cccnc1C1(O)CCN(C(=O)NCc2ccccc2)CC1 [CBK282293]
Second: Nc1ncc(-c2cccnc2)nc1NCc1ccccc1 [CBK063349]
The viability at 28.5 h, 10 µM of the first is lower: 88% for the first, 102% for the second.

First: Nc1ncnc2sc3c(c12)CCN(C(=O)c1ccc2nccnc2c1)C3 [CBK295588]
Second: O=C(c1ccc2ncccc2c1)N1CCC2(CCN(C(=O)c3cc(F)c(F)cc3F)C2)C1 (stereo not drawn) [CBK131391]
The viability at 28.5 h, 10 µM of the first is higher: 102% for the first, 91% for the second.

Going from `Nc1cccc(-c2cn([C@H]3C[C@@H](O)[C@@H](CO)O3)c(=O)[nH]c2=O)c1` [CBK201262] to `Nc1cccc(-c2nccnc2NCc2cccs2)c1` [CBK037537], the viability at 28.5 h, 10 µM rises from 94.4% to 104%.

Going from `Cn1nc(C2CCCN(C(=O)C3CC3)C2)c2cccnc21` (stereo not drawn) [CBK282654] to `O=C(NCc1csc2c1CCCC2)N1CC(c2ccccn2)C1` [CBK307499], the viability at 28.5 h, 10 µM rises from 89.4% to 100%.

First: Cc1ccc(NC(=O)C(=O)NCCCN2CCOCC2)cc1C [CBK264836]
Second: O=C(COc1ccc2ccccc2c1)NCCN1CCOCC1 [CBK265444]
The viability at 28.5 h, 10 µM of the first is lower: 106% for the first, 107% for the second.

Going from `CCn1nc(C)cc1C(=O)N1Cc2cnn(Cc3ccc(F)cc3)c2C1` [CBK306574] to `CC(C)(C)NC(=O)C[C@@H]1CCNC[C@@H]1Cc1cc(-c2ccc(F)cc2)on1` [CBK288802], the viability at 28.5 h, 10 µM rises from 96.7% to 99.2%.

First: O=C(OCCN1CCOCC1)N1CCN(c2ccccc2)CC1 [CBK200242]
Second: NC(=O)CN1CCN(CCc2ccccc2)CC1 [CBK126429]
The viability at 28.5 h, 10 µM of the first is higher: 90.3% for the first, 88.4% for the second.

First: CC(C)OCC(=O)NC1CCCc2nc(N3CCC(CO)CC3)ncc21 (stereo not drawn) [CBK307520]
Second: CCN1CCN(c2ccc(-c3ccc(OCC4CCN(C(=O)OC(C)(C)C)CC4)cn3)cn2)CC1 [CBK174505]
The viability at 28.5 h, 10 µM of the first is lower: 94.5% for the first, 109% for the second.

Going from `Cn1c(=O)c2c(nc(NCCCO)n2C/C=C/c2ccccc2)n(C)c1=O` [CBK268940] to `O=C(O)CCCNS(=O)(=O)/C=C/c1ccccc1` [CBK287170], the viability at 28.5 h, 10 µM falls from 87.2% to 85.1%.

Compared with `Cc1cc(SCC(C)C)n2ncnc2n1` [CBK261808], `CC(C)Nc1nccnc1-c1ccc(CO)cc1` [CBK088519] is lower in viability at 28.5 h, 10 µM: 112% for the first, 90.1% for the second.

Compared with `COc1cccc(CC(=O)NCc2ccccc2OC2CCNC2)c1` (stereo not drawn) [CBK024487T], `Cc1ccccc1OCC(=O)N1CC(=O)Nc2ccccc21` [CBK300535] is higher in viability at 28.5 h, 10 µM: 88.5% for the first, 94% for the second.

Going from `CCCCn1cc(CN(C)C)c2c(C)ccnc21` [CBK008697] to `C=CCn1cc(CN(CCN(C)C)Cc2ccc(C)o2)c(C)n1` [CBK282844], the viability at 28.5 h, 10 µM falls from 102% to 101%.

First: Cn1ccnc1Sc1ncccc1C(F)(F)F [CBK093759]
Second: CSc1nnc(NS(=O)(=O)c2ccccc2C)s1 [CBK144918]
The viability at 28.5 h, 10 µM of the first is lower: 91.2% for the first, 97.4% for the second.

First: COCCN(Cc1cc2ccc(C)cc2nc1O)S(=O)(=O)c1ccccc1 [CBK269216]
Second: Cc1ccc(S(=O)(=O)N(CC(O)Cn2c3ccc(Cl)cc3c3cc(Cl)ccc32)c2ccccc2)cc1 (stereo not drawn) [CBK263353]
The viability at 28.5 h, 10 µM of the first is higher: 99.6% for the first, 92.2% for the second.

Going from `O=C(c1cc(-c2cccc(Br)c2)nc2ccccc12)N1CCN(C/C=C/c2ccccc2)CC1` [CBK262633] to `COc1ccc(OCC(=O)N2CCN(S(=O)(=O)c3ccccc3[N+](=O)[O-])CC2)cc1` [CBK264213], the viability at 28.5 h, 10 µM falls from 100% to 93.5%.

Going from `Cc1ccc(OC(C)c2nc(-c3nonc3N)no2)cc1C` (stereo not drawn) [CBK025698] to `N/C(=N\OCC(=O)Nc1ccc(-n2cnnn2)cc1)c1nonc1N` [CBK265331], the viability at 28.5 h, 10 µM rises from 92.4% to 104%.

Compared with `CCN(Cc1ccccc1)C(=O)NCc1cnc(C)cn1` [CBK155218], `Cc1ccc(Nc2ncc(C(=O)NCc3ccccn3)c3ccccc23)cc1Cl` [CBK291113] is higher in viability at 28.5 h, 10 µM: 107% for the first, 109% for the second.

Compared with `COCCNS(=O)(=O)c1cccc2c1CN(C(=O)CC1CCCC1)CC2` [CBK306982], `CCOC(=O)C1CCN(S(=O)(=O)c2cccs2)CC1` [CBK051137] is lower in viability at 28.5 h, 10 µM: 101% for the first, 92.4% for the second.

Going from `COc1ccc(N2C(=O)CC(N3CCN(c4ccc(C(=O)c5cccnc5)cc4)CC3)C2=O)cc1` (stereo not drawn) [CBK268924] to `O=C(CSc1nnc(-c2cccnc2)o1)c1ccc(Oc2ccccc2)cc1` [CBK266327], the viability at 28.5 h, 10 µM falls from 92.7% to 88.1%.

Going from `Cc1[nH]c(=O)[nH]c(=S)c1C(=O)NCc1cccc(Cl)c1C` [CBK115493] to `COC(=O)c1c(NC(=O)c2cc(C)on2)sc(C(=O)Nc2ccc(Cl)cc2)c1C` [CBK268116], the viability at 28.5 h, 10 µM falls from 94.6% to 89.7%.

Going from `CCN(Cc1cn2cccc(C(=O)OC)c2n1)CC1CCOC1` (stereo not drawn) [CBK304880] to `CCN1CCN(c2ccc(NC(=O)Cc3cn4ccsc4n3)cc2)CC1` [CBK305892], the viability at 28.5 h, 10 µM falls from 96.6% to 81.3%.

Compared with `Cc1ccc2[nH]c3c(c2c1)CCN(C=O)C31CCN(Cc2ccc(OC(F)F)cc2)CC1` [CBK040438], `COc1ccc(-c2[nH]c3ncccc3c2CN2CCSCC2)cc1` [CBK285338] is lower in viability at 28.5 h, 10 µM: 101% for the first, 91.9% for the second.

Going from `Cc1cc(NS(=O)(=O)c2cccc([N+](=O)[O-])c2)n(C)n1` [CBK067243] to `O=C(Nc1ccccc1[N+](=O)[O-])c1cc(S(=O)(=O)NCc2ccco2)ccc1Cl` [CBK264557], the viability at 28.5 h, 10 µM falls from 99.2% to 94.4%.

Compared with `O=C(O)CCC(=O)Nc1ccccc1C(=O)N1CCCCCC1` [CBK269863], `O=C(O)/C=C\C(=O)Nc1ccccc1C(=O)N1CCOCC1` [CBK287067] is higher in viability at 28.5 h, 10 µM: 86.3% for the first, 100% for the second.

Going from `CC1(O)CCCN(C(=O)c2c[nH]nc2-c2cc3ccccc3o2)C1` (stereo not drawn) [CBK305555] to `COC(=O)c1ccccc1OC(=O)COc1ccc(Cl)cc1Br` [CBK268733], the viability at 28.5 h, 10 µM falls from 88.3% to 83.7%.

Going from `CCOc1ccc(C(C)(CC(=O)O)C(=O)O)cc1` (stereo not drawn) [CBK261361] to `O=C(O)CC(CP(c1ccccc1)c1ccccc1)C(=O)O` (stereo not drawn) [CBK260931], the viability at 28.5 h, 10 µM falls from 102% to 77.6%.

First: CCCNC(=O)CN1CCC(NC(=O)Cn2cc(Br)ccc2=O)CC1 [CBK305665]
Second: CCCNC(=O)CN(C)CC(=O)Nc1sc2c(c1C#N)CCC(C)C2 (stereo not drawn) [CBK305845]
The viability at 28.5 h, 10 µM of the first is higher: 94% for the first, 82.5% for the second.

Going from `O=C(Nc1ccc(S(=O)(=O)N2CCCCCC2)cc1)c1ccc(NS(=O)(=O)c2ccccc2)cc1` [CBK268018] to `CCCC(=O)c1ccc(S(=O)(=O)N2CCCN(Cc3cccc4cccnc34)CC2)cc1` [CBK062909], the viability at 28.5 h, 10 µM rises from 90.4% to 93%.

Going from `CCOC(=O)c1sc2nc(C)cc(C)c2c1N` [CBK097355] to `Cc1cc(C)nc(Nc2n[nH]c(-c3ccc(N)cc3)n2)n1` [CBK267131], the viability at 28.5 h, 10 µM rises from 82.9% to 99.5%.

Going from `COC(=O)c1c(NC(=S)NNC(=O)c2nn(C)cc2I)sc2c1CCC2` [CBK267074] to `CC(C)C(=O)NC(NC(=S)Nc1sc2c(c1C(N)=O)CCCC2)C(Cl)(Cl)Cl` (stereo not drawn) [CBK261050], the viability at 28.5 h, 10 µM falls from 97.7% to 94%.

Going from `COc1cc(/C=C2\N=C(c3cccs3)OC2=O)ccc1OCc1ccc(Cl)cc1` [CBK263176] to `NS(=O)(=O)c1ccc(/N=C/c2ccc(OCc3ccccc3)cc2)cc1` [CBK261585], the viability at 28.5 h, 10 µM falls from 101% to 98.3%.

First: Cc1cc(=O)n2c(c1C#N)SCC2 [CBK027807]
Second: Cc1nn(C)c(N2CCNCC2)c1NC(=O)c1cccn1C [CBK050309T]
The viability at 28.5 h, 10 µM of the first is higher: 102% for the first, 94.8% for the second.

First: O=C1c2ccc(Oc3ccc(Oc4ccc5c(c4)C(=O)N(c4cccnc4)C5=O)cc3)cc2C(=O)N1c1cccnc1 [CBK262195]
Second: O=[N+]([O-])c1cccc(-c2nc(-c3ccccc3)c(-c3ccc4oc5ccc(-c6[nH]c(-c7cccc([N+](=O)[O-])c7)nc6-c6ccccc6)cc5c4c3)[nH]2)c1 [CBK261433]
The viability at 28.5 h, 10 µM of the first is higher: 95.7% for the first, 87.5% for the second.

First: Cn1cncc1CN1C[C@@H]2CCCN2C[C@@H]1Cc1ccccc1 [CBK283027]
Second: C1=CCC(CN2CCN(C3CCN(Cc4ccccc4)CC3)CC2)CC1 (stereo not drawn) [CBK263469]
The viability at 28.5 h, 10 µM of the first is higher: 91.9% for the first, 91.6% for the second.

Compared with `CCCC1C2C=CC(C2)C1/C=N/O` (stereo not drawn) [CBK009671], `CC1=C[C@@H](CO)[C@H](C(C)C)C[C@H]1Cc1nnc(-c2ccncc2)o1` [CBK289222] is higher in viability at 28.5 h, 10 µM: 83.4% for the first, 110% for the second.

Going from `OC(COc1ccccc1F)CSc1nc(NC2CC2)c2ccccc2n1` (stereo not drawn) [CBK297902] to `O=C(Nc1cccc2ccccc12)O[C@@H]1CO[C@H]2[C@@H]1OC[C@@H]2NC(=O)c1cccs1` [CBK289468], the viability at 28.5 h, 10 µM rises from 86.7% to 103%.

First: O=C(O)CN1C(=O)C(=Cc2ccc(-c3ccc(Br)cc3)o2)SC1=S [CBK296075]
Second: O=C(Nc1ccc2n(c1=O)C[C@@H]1CNC[C@H]2C1)c1ccc(F)cc1 [CBK289078]
The viability at 28.5 h, 10 µM of the first is lower: 92.2% for the first, 98.4% for the second.

First: Oc1cccc2c1OCO2 [CBK000070]
Second: CN(C)C(=O)CN1C(=O)CC2(C1=O)C(=O)N(C)c1ccc(Cl)cc12 (stereo not drawn) [CBK075232]
The viability at 28.5 h, 10 µM of the first is lower: 85.8% for the first, 90.2% for the second.

Compared with `N#Cc1ccc(NC(=O)CCn2cnnn2)cc1` [CBK269832], `Oc1nc(O)c2c3c(n(CCn4ccnc4)c2n1)CCCC3` [CBK024380B] is higher in viability at 28.5 h, 10 µM: 91.4% for the first, 109% for the second.

Same assay, conditions: human, hela cells, % viability, bulk resorufin, single well

In the case of `Cc1ccc(C=C2C(=O)NC(=O)NC2=O)cc1[N+](=O)[O-]` [CBK262102], the viability at 28.5 h, 10 µM is reported as 97.9%.
